# Measured values published in US20100292283A1, “NOVEL PHENYL-ACETAMIDE AND PHENYL-PROPIONAMIDE DERIVATIVES USEFUL AS POTASSIUM CHANNEL MODULATORS” (priority 2007, published 2010).
# pEC50: −log10 of the molar value.
# Biological target: T1, BK channels (Homo sapiens, UniProt Q12791)
# T1 construct: expressed in transfected cells; host or cells: Xenopus laevis oocytes
# Experiment: BK channel opening activity, two-electrode voltage clamp in Xenopus oocytes
# Assay type: cell-based
# Settings: BK channels heterologously expressed in Xenopus oocytes, 0.01-31.6 μM compound
# Description: In this example the BK channel opening activity of Compound 8 is determined using BK channels heterologously expressed in Xenopus iaevis oocytes.
# The electrical current through the BK channel was measured using conventional two-electrode voltage clamp. BK currents were activated by repeating ramp protocols. In brief, the membrane potential was continuously changed from −120 mV to +120 mV within a 2 s period. The threshold for BK activation is approximately +30 mV under control conditions. Compounds were applied for 100 s during which the ramp protocol was repeated 10 times with 10 s intervals. In between the ramp protocols the membrane potential was clamped at −80 mV. The first three compound applications were control blanks where the current level is allowed to stabilize. […]
# In order to evaluate the ability of the compounds to shift the BK activation curve towards lower membrane potentials, the BK current was transformed into conductance by using Ohm's law g=I/(Ememb−Erev), where g is the conductance, I is the current, Ememb is the membrane potential and Erev is the reversal potential. […] The control conductance level at a membrane potential of +100 mV was calculated, and the compound effect was evaluated as the potential difference, […], to the membrane potential at which the same conductance level was obtained in the presence of compound. […]
# T1 sequence (Q12791 whole entry): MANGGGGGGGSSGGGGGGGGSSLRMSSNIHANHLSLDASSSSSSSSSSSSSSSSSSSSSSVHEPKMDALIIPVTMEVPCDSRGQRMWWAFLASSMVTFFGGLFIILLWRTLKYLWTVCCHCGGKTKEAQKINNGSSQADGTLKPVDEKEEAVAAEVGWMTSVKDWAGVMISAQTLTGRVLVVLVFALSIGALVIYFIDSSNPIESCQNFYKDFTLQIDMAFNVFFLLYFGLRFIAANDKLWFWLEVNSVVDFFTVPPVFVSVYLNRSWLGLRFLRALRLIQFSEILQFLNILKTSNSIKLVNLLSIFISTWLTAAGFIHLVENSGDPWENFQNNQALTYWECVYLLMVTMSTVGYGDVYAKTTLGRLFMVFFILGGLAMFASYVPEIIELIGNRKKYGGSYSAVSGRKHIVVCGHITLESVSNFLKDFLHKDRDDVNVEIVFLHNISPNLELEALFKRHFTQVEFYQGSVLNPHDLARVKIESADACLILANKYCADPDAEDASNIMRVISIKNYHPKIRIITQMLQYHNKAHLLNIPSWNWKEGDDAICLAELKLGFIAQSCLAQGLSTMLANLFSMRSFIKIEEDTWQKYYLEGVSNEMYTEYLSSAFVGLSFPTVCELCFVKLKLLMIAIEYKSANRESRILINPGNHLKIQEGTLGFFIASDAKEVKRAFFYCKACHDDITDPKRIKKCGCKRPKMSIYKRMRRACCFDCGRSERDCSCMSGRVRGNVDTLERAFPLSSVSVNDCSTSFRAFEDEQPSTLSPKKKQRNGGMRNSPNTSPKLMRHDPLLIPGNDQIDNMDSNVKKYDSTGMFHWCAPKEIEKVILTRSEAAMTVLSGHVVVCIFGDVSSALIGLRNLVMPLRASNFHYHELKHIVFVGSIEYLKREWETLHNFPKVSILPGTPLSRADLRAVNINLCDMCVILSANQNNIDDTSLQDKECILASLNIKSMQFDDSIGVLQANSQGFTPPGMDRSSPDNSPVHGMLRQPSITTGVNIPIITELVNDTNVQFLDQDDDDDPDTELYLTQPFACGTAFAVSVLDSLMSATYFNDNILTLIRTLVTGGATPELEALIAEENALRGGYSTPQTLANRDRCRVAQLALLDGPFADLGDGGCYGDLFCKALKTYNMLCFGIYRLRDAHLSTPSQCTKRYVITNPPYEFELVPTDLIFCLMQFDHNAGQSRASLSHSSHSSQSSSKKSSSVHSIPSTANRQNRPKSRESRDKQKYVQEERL
structure (smiles),measurement,setting,value
O=C(COc1cccc(Cl)c1)Nc1cc(Cl)ccc1-c1noc(=O)[nH]1 [Compound 8],maximal left-shift for the BK-activation curve (ΔVmax),fitted to sigmoidal logistic equation,-94 mV
same,pEC50,"ramp -120 to +120 mV, ΔV at control conductance level of +100 mV, read-out: EC50 for the left-shift of the BKca-activation curve",5.09
